Data published in the supplement of paper PMC10307832.

What was measured:
Assay in all cases: relative viability (nuclei count vs DMSO), 5 days (fraction); higher = more cells survive
[1] = compound: Cn1cc(-c2cnn3c(N)c(Br)c([C@@H]4CCCNC4)nc23)cn1 + Nc1ncn([C@H]2C[C@H](O)[C@@H](CO)O2)c(=O)n1 [Decitabine] (partner 2 µM)
Outline: (§1)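 A single step with final 0.05% Triton X-100, 1% formaldehyde and 1 ug/ml Hoechst fixed the cells and stained nuclei 5 days after treatment. Lung cancer cell lines in 1536-well plates had been treated by pin tool the day after seeding with one drug alone or a fixed anchor-drug dose plus five library-drug doses (not always all listed) in √10 steps, and nuclei were counted on 4× images. Relative viability is the ratio of nuclei in treated wells to nuclei in vehicle wells, taken as the median of duplicate plates.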

[2] = compound: Cn1cc(-c2cnn3c(N)c(Br)c([C@@H]4CCCNC4)nc23)cn1 + C[C@@H](Oc1cc(-c2cnn(C3CCNCC3)c2)cnc1N)c1c(Cl)ccc(F)c1Cl [Crizotinib] (partner 1 µM)
Outline: as §1

[3] = compound: Cn1cc(-c2cnn3c(N)c(Br)c([C@@H]4CCCNC4)nc23)cn1 + N=C(N)NC(=N)NCCc1ccccc1 [Phenformin] (partner 250 µM)
Outline: as §1

[4] = compound: Cn1cc(-c2cnn3c(N)c(Br)c([C@@H]4CCCNC4)nc23)cn1 + CC1(C)CCC(c2ccc(Cl)cc2)=C(CN2CCN(c3ccc(C(=O)NS(=O)(=O)c4ccc(N[C@H](CCN5CCOCC5)CSc5ccccc5)c(S(=O)(=O)C(F)(F)F)c4)cc3)CC2)C1 [Navitoclax] (partner 0.5 µM)
Outline: as §1

Cell Line	relative viability ([1]; first compound 0.05 µM)	relative viability ([1]; first compound 0.1581 µM)	relative viability ([1]; first compound 0.5 µM)	relative viability ([1]; first compound 1.581 µM)	relative viability ([1]; first compound 5 µM)	relative viability ([2]; first compound 0.05 µM)	relative viability ([2]; first compound 0.1581 µM)	relative viability ([2]; first compound 0.5 µM)	relative viability ([2]; first compound 1.581 µM)	relative viability ([2]; first compound 5 µM)	relative viability ([3]; first compound 0.05 µM)	relative viability ([3]; first compound 0.1581 µM)	relative viability ([3]; first compound 0.5 µM)	relative viability ([3]; first compound 1.581 µM)	relative viability ([3]; first compound 5 µM)	relative viability ([4]; first compound 0.05 µM)	relative viability ([4]; first compound 0.1581 µM)	relative viability ([4]; first compound 0.5 µM)	relative viability ([4]; first compound 1.581 µM)	relative viability ([4]; first compound 5 µM)
NCI-H727	0.919	0.858	0.923	0.696	0.705	0.912	0.965	0.664	0.648	0.353	0.505	0.501	0.663	0.51	0.238	0.4	0.43	0.333	0.463	0.212
NCI-H838	0.483	0.574	0.545	0.51	0.309	0.925	0.987	0.783	0.785	0.561	0.483	0.66	0.552	0.324	0.554	1.15	1.21	1.08	1.08	1.16
NCI-H1355	0.344	0.332	0.378	0.417	0.358	0.984	1.12	1.07	1.01	0.698	0.428	0.51	0.467	0.366	0.415	0.964	0.945	0.926	0.986	0.857
NCI-H1437	0.556	0.695	0.655	0.623	0.21	1.09	1.05	0.967	0.693	0.849	0.272	0.296	0.32	0.214	0.229	1.15	1.25	1.05	1.03	1.08
NCI-H1650	0.445	0.478	0.373	0.445	0.3	1.08	0.909	1.29	0.709	0.477		0.505	0.403	0.33	0.218	1.27	1.23	1.25	0.845	0.67
NCI-H1651	0.566	0.648	0.613	0.552	0.385	0.902	0.985	0.806	0.821	0.569	0.331	0.336	0.318	0.223	0.173	1.06	1.36	0.865	0.555	0.408
NCI-H1666	0.629	0.699	0.719	0.698	0.713	1.03	0.906	1.02	1	0.869	0.536	0.552	0.573	0.549	0.593	0.906	0.956	0.871	0.829	0.842
NCI-H1734	0.518	0.491	0.49	0.437	0.448	0.682	0.804	0.633	0.661	0.393	0.368	0.457	0.373	0.349	0.319	0.885	0.906	0.918	0.57	0.733
NCI-H1755	0.722	0.81	0.774	0.793	0.855	0.988	1.03	0.932	0.845	0.602	0.629	0.664	0.603	0.652	0.597	1.12	1.03	0.961	0.994	0.969
NCI-H1792	0.542	0.627	0.587		0.516	0.843	0.861	0.861	0.656	0.582	0.189	0.345	0.261	0.203	0.236	0.35	0.674	0.322	0.366	0.677
NCI-H1915	0.225	0.255	0.299	0.24	0.311	0.674	0.871	0.906	0.697	0.905	0.344	0.377	0.36	0.357	0.379	0.796	0.805	0.736	0.765	0.775
NCI-H1944	0.439	0.468	0.448	0.482	0.356	0.951	1.21	1.09	0.931	0.717	0.212	0.199	0.198	0.194	0.186	0.92	1.01	1.05	1.01	0.858
NCI-H1975	0.433	0.458	0.767	0.388	0.396	1.01	1.05	0.781	0.764	0.714	0.44	0.435	0.443	0.338	0.356	1.21	1.14	1.01	0.908	0.989
NCI-H1993	0.602	0.49	0.621	0.55	0.524	0.76	0.878		0.933	0.702	0.522	0.536	0.412	0.481	0.513	0.793	0.898		0.873	0.831
NCI-H2009	0.384	0.369	0.377	0.37	0.387	1.05	1.03	1.08	0.881	0.678	0.487	0.507	0.453	0.434	0.409	1.16	1.28	1.1	1.1	1
NCI-H2023	0.228	0.219	0.21	0.167	0.127	0.702	0.428	0.436	0.272	0.172	0.426	0.368	0.245	0.203	0.129	1.06	0.727	0.789	0.304	0.192
